Common to all, as to format: biochemical
Test [1] addresses T1, IRAK1 (Homo sapiens, UniProt P51617).
T1 construct: purchased Reaction Biology (RBC HotSpot Kinase Assay)
As to the kind of experiment: RBC HotSpot Kinase Assay, IRAK1. An excerpt: (§1) This assay uses the isolated kinase enzyme. This assay is very useful for determining competition of the inhibitor for ATP and/or substrates and for measuring the kinetics of enzyme inhibition. […] Unlike kinase binding assays that measure competition for ATP, the HotSpot Kinase Assay is a functional assay that measures catalytic activity; as such it measures relative functional potency regardless of the mechanism of enzyme inhibition. This assay uses the form of the various enzymes that are easiest to express, which may not necessarily be the form of the enzyme that exist in the cell. (Sometimes the carboxy terminus has been truncated to aid in expression, or, if it is a receptor kinase, the enzyme itself is isolated from the other parts of the receptor that are involved in regulating kinase activity.)
(§2) The reagent used was as follows: Base Reaction buffer; 20 mM Hepes (pH 7.5), 10 mM MgCl2, 1 mM EGTA, 0.01% Brij35, 0.02 mg/ml BSA, 0.1 mM Na3VO4, 2 mM DTT, 1% DMSO. Required cofactors were added individually to each kinase reaction.
(§3) The reaction procedure was as follows: • 1) Substrates were prepared in freshly prepared Reaction Buffer. • 2) Any required cofactors were delivered to the substrate solution above. • 3) Kinase was delivered into the substrate solution and gently mixed. • 4) Compounds were delivered in 100% DMSO into the kinase reaction mixture by Acoustic technology (Echo550; nanoliter range), followed by incubation for 20 min at room temp. • 5) ^33P-ATP was delivered into the reaction mixture to initiate the reaction. • 6) The mixture was incubated for 2 hours at room temperature. • 7) Kinase activity was detected by P81 filter-binding method.

Test [2] addresses T2, IRAK4 (Homo sapiens, UniProt Q9NWZ3).
T2 sequence (Q9NWZ3 1-460): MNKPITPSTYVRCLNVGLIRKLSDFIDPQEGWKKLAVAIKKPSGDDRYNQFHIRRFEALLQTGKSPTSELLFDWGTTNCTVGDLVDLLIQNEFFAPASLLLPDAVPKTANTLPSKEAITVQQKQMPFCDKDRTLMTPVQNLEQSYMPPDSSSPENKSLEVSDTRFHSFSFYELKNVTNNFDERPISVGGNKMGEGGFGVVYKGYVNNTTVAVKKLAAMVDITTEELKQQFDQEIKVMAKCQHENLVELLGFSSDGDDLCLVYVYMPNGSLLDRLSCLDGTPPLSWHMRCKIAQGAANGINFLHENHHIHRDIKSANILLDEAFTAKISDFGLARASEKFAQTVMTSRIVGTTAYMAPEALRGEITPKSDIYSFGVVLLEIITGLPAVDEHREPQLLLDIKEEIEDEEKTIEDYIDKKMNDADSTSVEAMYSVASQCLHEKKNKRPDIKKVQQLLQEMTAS
As to the kind of experiment: RBC HotSpot Kinase Assay, IRAK4. More on the design: purchased Reaction Biology (RBC HotSpot Kinase Assay).
Text: as §1, §2, §3

The target in test [3] is T3, FLT3 (Homo sapiens, UniProt P36888).
T3 construct: purchased Reaction Biology (RBC HotSpot Kinase Assay)
T3 sequence (P36888 564-958 limits assumed): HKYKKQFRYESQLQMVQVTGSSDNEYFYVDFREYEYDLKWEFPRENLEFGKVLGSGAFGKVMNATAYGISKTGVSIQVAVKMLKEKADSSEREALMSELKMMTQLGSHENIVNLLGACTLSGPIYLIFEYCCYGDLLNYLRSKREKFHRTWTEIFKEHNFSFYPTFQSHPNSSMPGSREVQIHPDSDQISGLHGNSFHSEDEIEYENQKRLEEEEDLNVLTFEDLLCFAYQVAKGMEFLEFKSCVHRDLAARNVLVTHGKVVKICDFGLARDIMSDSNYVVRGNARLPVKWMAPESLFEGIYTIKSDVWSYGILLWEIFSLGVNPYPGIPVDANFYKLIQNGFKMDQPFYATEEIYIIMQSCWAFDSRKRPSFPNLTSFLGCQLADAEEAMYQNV
The test can be described thus: RBC HotSpot Kinase Assay, FLT3.
Text: as §1, §2, §3

Bounds are passed on as bounds.

What is called IC50 is the point on the concentration scale where inhibition reaches its midpoint. A higher IC50 goes with lower potency.

T1 sequence (P51617 whole entry): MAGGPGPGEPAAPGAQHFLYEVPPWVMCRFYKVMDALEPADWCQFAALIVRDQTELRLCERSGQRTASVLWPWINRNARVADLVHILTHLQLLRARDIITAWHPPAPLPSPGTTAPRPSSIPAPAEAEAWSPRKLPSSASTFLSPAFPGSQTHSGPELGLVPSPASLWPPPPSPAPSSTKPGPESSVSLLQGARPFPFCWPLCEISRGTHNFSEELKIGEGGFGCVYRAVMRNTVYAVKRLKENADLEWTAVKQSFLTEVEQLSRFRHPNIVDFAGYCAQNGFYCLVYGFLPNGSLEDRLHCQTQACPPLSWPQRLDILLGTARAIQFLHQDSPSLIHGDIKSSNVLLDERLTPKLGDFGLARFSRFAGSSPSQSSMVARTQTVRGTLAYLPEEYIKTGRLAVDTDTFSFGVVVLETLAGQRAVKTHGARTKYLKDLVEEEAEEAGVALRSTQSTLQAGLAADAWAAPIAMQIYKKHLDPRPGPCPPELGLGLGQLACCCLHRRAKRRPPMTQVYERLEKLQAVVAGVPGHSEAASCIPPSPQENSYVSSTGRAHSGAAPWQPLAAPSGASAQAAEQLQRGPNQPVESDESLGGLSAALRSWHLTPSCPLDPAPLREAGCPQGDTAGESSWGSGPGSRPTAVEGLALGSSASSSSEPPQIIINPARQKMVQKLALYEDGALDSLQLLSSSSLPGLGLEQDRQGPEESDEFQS

Take `F[C@@H]1CNCC[C@H]1Nc1cccc(-c2cnc3ccc(C4CC4)nn23)n1` [Compound 73, 6-(6-cyclopropylimidazo[1,2-b]pyridazin-3-yl)-N-((3R,4R)-3-fluoropiperidin-4-yl)pyridin-2-amine]: the IC50 was 1830 nM in test [1], 292 nM in test [2] and 10 nM in test [3].
On the same counts, the results for `F[C@H]1CNCC[C@@H]1Nc1cccc(-c2cnc3ccc(-c4cnn(C5CC5)c4)nn23)n1` [Compound 7, 6-(6-(1-cyclopropyl-1 H-pyrazol-4-yl)imidazo[1,2-b]pyridazin-3-yl)-N-((3S,4S)-3-fluoropiperidin-4-yl)pyridin-2-amine] are 284 nM, 52 nM and 4 nM.
Regarding `CC(C)Oc1cnn2c(-c3cccc(N[C@H]4CNC[C@@H]4F)n3)cnc2c1` [Compound 115, N-((3S,4S)-4-fluoropyrrolidin-3-yl)-6-(7-isopropoxyimidazo[1,2-b]pyridazin-3-yl)pyridin-2-amine], the IC50 is 3190 nM in test [1], 323 nM in test [2] and 9 nM in test [3].
On the same counts, the results for `CC(C)n1cc(-c2ccc3ncc(-c4cccc(NC5CC6(CNC6)C5)n4)n3n2)cn1` [Compound 32, N-(6-(6-(1-isopropyl-1H-pyrazol-4-yl)imidazo[1,2-b]pyridazin-3-yl)pyridin-2-yl)-2-azaspiro[3.3]heptan-6-amine] are 3410 nM, 630 nM and 9 nM.
On the same counts, the results for `Cn1cc(-c2ccc3ncc(-c4cccc(N[C@H]5CCNC[C@@H]5F)n4)n3n2)cn1` [Compound 5, N-((3S,4S)-3-fluoropiperidin-4-yl)-6-(6-(1-methyl-1H-pyrazol-4-yl)imidazo[1,2-b]pyridazin-3-yl)pyridin-2-amine] are 266 nM, 51 nM and 5 nM.
On the same counts, the results for `CC(C)(O)Cn1cc(-c2ccc3ncc(-c4cccc(N[C@H]5CNC[C@@H]5F)n4)n3n2)cn1` [Compound 4, 1-(4-(3-(6-(((3S,4S)-4-fluoropyrrolidin-3-yl)amino)pyridin-2-yl)imidazo[1,2-b]pyridazin-6-yl)-1 H-pyrazol-1-yl)-2-methylpropan-2-ol] are 1360 nM, 114 nM and 3 nM.
As to `Cc1oncc1-c1ccc2ncc(-c3cccc(NC4CCC5(CNC5)C4)n3)n2n1` (stereo not drawn) [Compound 50, N-(6-(6-(5-methylisoxazol-4-yl)imidazo[1,2-b]pyridazin-3-yl)pyridin-2-yl)-2-azaspiro[3.4]octan-6-amine], the IC50 in test [1] is 1060 nM; in test [2], 2670 nM; in test [3] it was 8 nM.
For `F[C@H]1CNC[C@@H]1Nc1cccc(-c2cnc3ccc(C4CC4)nn23)n1` [Compound 69, 6-(6-cyclopropylimidazo[1,2-b]pyridazin-3-yl)-N-((3S,4S)-4-fluoropyrrolidin-3-yl)pyridin-2-amine], the IC50 in test [1] was 3970 nM; in test [2] it was 45 nM; in test [3] it was 3 nM.
On the same counts, the results for `CC(C)n1cc(-c2ccc3ncc(-c4cccc(NC5CC6(CCNC6)C5)n4)n3n2)cn1` (stereo not drawn) [Compound 39, N-(6-(6-(1-isopropyl-1H-pyrazol-4-yl)imidazo[1,2-b]pyridazin-3-yl)pyridin-2-yl)-6-azaspiro[3.4]octan-2-amine] are 2330 nM, 321 nM and 8 nM.
On the same counts, the results for `Cn1cc(-c2ccc3ncc(-c4cccc(NC5CCNC5)n4)n3n2)cn1` (stereo not drawn) [Compound 30, 6-(6-(1-methyl-1H-pyrazol-4-yl)imidazo[1,2-b]pyridazin-3-yl)-N-(pyrrolidin-3-yl)pyridin-2-amine] are 565 nM, 104 nM and 2 nM.
On the same counts, the results for `c1cc(NC2CC3(CCNC3)C2)nc(-c2cnc3ccc(-c4cnn5ccccc45)nn23)c1` (stereo not drawn) [Compound 62, N-(6-(6-(pyrazolo[1,5-a]pyridin-3-yl)imidazo[1,2-b]pyridazin-3-yl)pyridin-2-yl)-6-azaspiro[3.4]octan-2-amine] are 403 nM, 16 nM and under 0.5 nM.
Regarding `c1cc(NC2CC3(CCNC3)C2)nc(-c2cnc3ccc(-c4cn[nH]c4)nn23)c1` (stereo not drawn) [Compound 38, N-(6-(6-(1H-pyrazol-4-yl)imidazo[1,2-b]pyridazin-3-yl)pyridin-2-yl)-6-azaspiro[3.4]octan-2-amine], the IC50 in test [1] was 23 nM; in test [2] it was 2 nM; in test [3], under 0.5 nM.
On the same counts, the results for `Cn1cc(-c2ccc3ncc(-c4cccc(NC5CC6(CCNC6)C5)n4)n3n2)cn1` (stereo not drawn) [Compound 42, N-(6-(6-(1-methyl-1H-pyrazol-4-yl)imidazo[1,2-b]pyridazin-3-yl)pyridin-2-yl)-6-azaspiro[3.4]octan-2-amine] are 2220 nM, 113 nM and 3 nM.
Take `c1cc(NC2CCC3(CNC3)C2)nc(-c2cnc3ccc(-c4cnn(C5CCOCC5)c4)nn23)c1` (stereo not drawn) [Compound 48, N-(6-(6-(1-(tetrahydro-2H-pyran-4-yl)-1H-pyrazol-4-yl)imidazo[1,2-b]pyridazin-3-yl)pyridin-2-yl)-2-azaspiro[3.4]octan-6-amine]: the IC50 was over 10000 nM in test [1], 4080 nM in test [2] and 12 nM in test [3].
As to `FC1(F)CNCC1Nc1cccc(-c2cnc3ccc(-c4cnn(C5CC5)c4)nn23)n1` (stereo not drawn) [Compound 22, 6-(6-(1-cyclopropyl-1H-pyrazol-4-yl)imidazo[1,2-b]pyridazin-3-yl)-N-(4,4-difluoropyrrolidin-3-yl)pyridin-2-amine], the IC50 stood at 678 nM in test [1], 44 nM in test [2] and 6 nM in test [3].
On the same counts, the results for `CC(C)(O)Cn1cc(-c2ccc3ncc(-c4cccc(N[C@H]5CCNC[C@@H]5F)n4)n3n2)cn1` [Compound 8, 1-(4-(3-(6-(((3S,4S)-3-fluoropiperidin-4-yl)amino)pyridin-2-yl)imidazo[1,2-b]pyridazin-6-yl)-1 H-pyrazol-1-yl)-2-methylpropan-2-ol] are 704 nM, 586 nM and 8 nM.
On the same counts, the results for `Cn1cc(-c2ccc3ncc(-c4cccc(N[C@H]5CNC[C@@H]5C(F)(F)F)n4)n3n2)cn1` [Compound 11, 6-(6-(1-methyl-1 H-pyrazol-4-yl)imidazo[1,2-b]pyridazin-3-yl)-N-((3R,4S)-4-(trifluoromethyl)pyrrolidin-3-yl)pyridin-2-amine] are 860 nM, 21 nM and under 0.5 nM.
As for `Cn1cc(-c2ccc3ncc(-c4cccc(N[C@@H]5CCCNC5)n4)n3n2)cn1` [Compound 15, (R)-6-(6-(1-methyl-1H-pyrazol-4-yl)imidazo[1,2-b]pyridazin-3-yl)-N-(piperidin-3-yl)pyridin-2-amine], the IC50 is 226 nM in test [1], 13 nM in test [2] and under 0.5 nM in test [3].
On the same counts, the results for `c1ccc(-n2cc(-c3ccc4ncc(-c5cccc(NC6CC7(CCNC7)C6)n5)n4n3)cn2)cc1` (stereo not drawn) [Compound 40, N-(6-(6-(1-phenyl-1H-pyrazol-4-yl)imidazo[1,2-b]pyridazin-3-yl)pyridin-2-yl)-6-azaspiro[3.4]octan-2-amine] are over 10000 nM, 1300 nM and 9 nM.
Consider `c1cc(NC2CCC3(CNC3)C2)nc(-c2cnc3ccc(-c4cnn5ccccc45)nn23)c1` (stereo not drawn) [Compound 63, N-(6-(6-(pyrazolo[1,5-a]pyridin-3-yl)imidazo[1,2-b]pyridazin-3-yl)pyridin-2-yl)-2-azaspiro[3.4]octan-6-amine], for which the IC50 in test [1] is 269 nM; in test [2], 28 nM; in test [3] it was under 0.5 nM.

Values taken from US12534469B2 (CHILDREN'S HOSPITAL MEDICAL CENTER, priority 2020, dated 2026).
